One block for each compound: values may come before it. Where a SMILES comes first, the peptide text is derived from it. Bridges are numbered along the chain shown (N, C = ends). Roman numbers before positions name the chains, in order. [ ]: non-standard residue; d: D form. The star is where a group is joined. ξ: configuration not given here. C16 diacid = O=C(O)CCCCCCCCCCCCCCC(=O)*; Phe(4-NH2) = Nc1ccc(C[C@H](N)C(=O)O)cc1; Ile(3ξ) = CCC(C)[C@H](N)C(=O)O; NHPhenethyl = c1ccc(CCN*)cc1
How the values were obtained:
[1] = target: T1, Human immunodeficiency virus type 1 protease (Human immunodeficiency virus 1, UniProt Q72874); experiment: Binding affinity to HIV1 protease assessed as inhibition constant
[2] = target: T1, Human immunodeficiency virus type 1 protease; experiment: Binding affinity to wild-type HIV1 protease expressed in Escherichia coli by fluorometric assay
[3] = tested on: Human immunodeficiency virus 1; experiment: Antiviral activity against wild type HIV1 ERS104pre infected in human PBMC cells assessed as inhibition of virus-induced cytopathic effect measured after 7 days by MTT assay; assay type: functional, organism-based; conditions: Human immunodeficiency virus 1, ERS104pre, 168 h
[4] = tested on: Human immunodeficiency virus 1; experiment: Antiviral activity against multidrug-resistant HIV1-G infected in phytohemagglutinin-activated human PBMC cells assessed as inhibition of virus-induced cytopathic effect measured after 7 days by MTT assay; assay type: functional, organism-based; conditions: Human immunodeficiency virus 1, G, 168 h
[5] = tested on: Human immunodeficiency virus 1; experiment: Antiviral activity against multidrug-resistant HIV1-MM infected in phytohemagglutinin-activated human PBMC cells assessed as inhibition of virus-induced cytopathic effect measured after 7 days by MTT assay; assay type: functional, organism-based; conditions: Human immunodeficiency virus 1, MM, 168 h
[6] = tested on: Human immunodeficiency virus 1; experiment: Ratio of EC50 for antiviral activity against HIV1-G to EC50 for antiviral activity against wild type HIV1 ERS104pre; assay type: functional
[7] = tested on: Human immunodeficiency virus 1; experiment: Ratio of EC50 for antiviral activity against HIV1-C to EC50 for antiviral activity against wild type HIV1 ERS104pre; assay type: functional
[8] = tested on: Human immunodeficiency virus 1; experiment: Antiviral activity against darunavir-resistant HIV1 10P infected in phytohemagglutinin-activated human PBMC cells assessed as inhibition of virus-induced cytopathic effect measured after 7 days by MTT assay; assay type: functional, organism-based; conditions: Human immunodeficiency virus 1, 10P, 168 h
[9] = tested on: Human immunodeficiency virus 1; experiment: Antiviral activity against multidrug-resistant HIV1-B infected in phytohemagglutinin-activated human PBMC cells assessed as inhibition of virus-induced cytopathic effect measured after 7 days by MTT assay; assay type: functional, organism-based; conditions: Human immunodeficiency virus 1, B, 168 h
[10] = tested on: Human immunodeficiency virus 1; experiment: Antiviral activity against darunavir-resistant HIV1 20P infected in phytohemagglutinin-activated human PBMC cells assessed as inhibition of virus-induced cytopathic effect measured after 7 days by MTT assay; assay type: functional, organism-based; conditions: Human immunodeficiency virus 1, 20P, 168 h
[11] = tested on: Human immunodeficiency virus 1; experiment: Ratio of EC50 for antiviral activity against HIV1-MM to EC50 for antiviral activity against wild type HIV1 ERS104pre; assay type: functional
[12] = tested on: Human immunodeficiency virus 1; experiment: Ratio of EC50 for antiviral activity against HIV1-TM to EC50 for antiviral activity against wild type HIV1 ERS104pre; assay type: functional
[13] = tested on: Human immunodeficiency virus 1; experiment: Antiviral activity against multidrug-resistant HIV1-TM infected in phytohemagglutinin-activated human PBMC cells assessed as inhibition of virus-induced cytopathic effect measured after 7 days by MTT assay; assay type: functional, organism-based; conditions: Human immunodeficiency virus 1, TM, 168 h
[14] = tested on: Human immunodeficiency virus 1; experiment: Ratio of EC50 for antiviral activity against HIV1-JSL to EC50 for antiviral activity against wild type HIV1 ERS104pre; assay type: functional
[15] = tested on: Human immunodeficiency virus 1; experiment: Antiviral activity against multidrug-resistant HIV1-C infected in phytohemagglutinin-activated human PBMC cells assessed as inhibition of virus-induced cytopathic effect measured after 7 days by MTT assay; assay type: functional, organism-based; conditions: Human immunodeficiency virus 1, C, 168 h
[16] = tested on: Human immunodeficiency virus 1; experiment: Antiviral activity against multidrug-resistant HIV1-JSL infected in phytohemagglutinin-activated human PBMC cells assessed as inhibition of virus-induced cytopathic effect measured after 7 days by MTT assay; assay type: functional, organism-based; conditions: Human immunodeficiency virus 1, JSL, 168 h
[17] = tested on: Human immunodeficiency virus 1; experiment: Ratio of EC50 for antiviral activity against HIV1-B to EC50 for antiviral activity against wild type HIV1 ERS104pre; assay type: functional
[18] = target: T1, Human immunodeficiency virus type 1 protease; experiment: Inhibition of recombinant HIV1 Protease
[19] = tested on: Human immunodeficiency virus 1; experiment: Antiviral activity against HIV1 LAI infected in human MT2 cells assessed as inhibition of virus-induced cytopathic effect by MTT assay; assay type: functional, organism-based; conditions: Human immunodeficiency virus 1, LAI
[20] = Apparent permeability in rat astrocytes/rat pericytes/monkey endothelial cells triple cell co-culture system incubated for 30 mins by spectrophotometric analysis; assay type: ADME, cell-based
[21] = tested on: Human immunodeficiency virus 1; experiment: Antiviral activity against HIV1 T21217 infected in human MT4 cells expressing LTR and EGFP assessed as inhibition of virus-induced cytopathic effect by fluorescence microscopic analysis; assay type: functional, organism-based; conditions: Human immunodeficiency virus 1, T21217, MT4
[22] = tested on: Human immunodeficiency virus 1; experiment: Antiviral activity against HIV1 T21055 infected in human MT4 cells expressing LTR and EGFP assessed as inhibition of virus-induced cytopathic effect by fluorescence microscopic analysis; assay type: functional, organism-based; conditions: Human immunodeficiency virus 1, T21055, MT4
[23] = tested on: Human immunodeficiency virus 1; experiment: Antiviral activity against HIV1 T13632 infected in human MT4 cells expressing LTR and EGFP assessed as inhibition of virus-induced cytopathic effect by fluorescence microscopic analysis; assay type: functional, organism-based; conditions: Human immunodeficiency virus 1, T13632, MT4
[24] = tested on: Human immunodeficiency virus 1; experiment: Antiviral activity against HIV1 T13572 infected in human MT4 cells expressing LTR and EGFP assessed as inhibition of virus-induced cytopathic effect by fluorescence microscopic analysis; assay type: functional, organism-based; conditions: Human immunodeficiency virus 1, T13572, MT4
[25] = tested on: Human immunodeficiency virus 1; experiment: Antiviral activity against HIV1 T13717 infected in human MT4 cells expressing LTR and EGFP assessed as inhibition of virus-induced cytopathic effect by fluorescence microscopic analysis; assay type: functional, organism-based; conditions: Human immunodeficiency virus 1, T13717, MT4
[26] = tested on: Human immunodeficiency virus 1; experiment: Antiviral activity against wild type HIV1 r13205 infected in human MT4 cells expressing LTR and EGFP assessed as inhibition of virus-induced cytopathic effect by fluorescence microscopic analysis; assay type: functional, organism-based; conditions: Human immunodeficiency virus 1, r13205, MT4
[27] = tested on: Human immunodeficiency virus 1; experiment: Antiviral activity against HIV1 T13436 infected in human MT4 cells expressing LTR and EGFP assessed as inhibition of virus-induced cytopathic effect by fluorescence microscopic analysis; assay type: functional, organism-based; conditions: Human immunodeficiency virus 1, T13436, MT4
[28] = tested on: Human immunodeficiency virus 1; experiment: Antiviral activity against HIV1 T20760 infected in human MT4 cells expressing LTR and EGFP assessed as inhibition of virus-induced cytopathic effect by fluorescence microscopic analysis; assay type: functional, organism-based; conditions: Human immunodeficiency virus 1, T20760, MT4

SMILES: CCC(C)N(CC(=O)N(CC(N)=O)Cc1ccc(N)cc1)C(=O)CN(CCSC)C(=O)CCCCCCCCCCCCCCC(=O)N(CC(N)=O)CC(=O)N(CC(=O)O)Cc1ccccc1 (stereo not drawn)
Ki [1]: 801 nM

SMILES: O=C(Cc1cccc2ccccc12)Nc1ccccc1CN1C[C@H](O)[C@@H](O)CN(Cc2ccccc2NC(=O)Cc2cccc3ccccc23)S1(=O)=O
Ki [2]: 20 nM

SMILES: COc1ccc(S(=O)(=O)N(CC(C)C)C[C@@H](O)[C@H](Cc2ccccc2)NC(=O)O[C@@H]2CO[C@@H]3O[C@H]4OCC[C@H]4[C@@H]32)cc1
EC50 [3]: 347 nM
EC50 [4]: 656 nM
EC50 [5]: 787 nM
Ratio EC50 [6]: 2
Ratio EC50 [7]: 1
EC50 [8]: > 1000 nM
EC50 [9]: 612 nM
EC50 [10]: > 1000 nM
Ratio EC50 [11]: 2
Ratio EC50 [12]: 2
EC50 [13]: 530 nM
Ratio EC50 [14]: >3
EC50 [15]: 514 nM
EC50 [16]: > 1000 nM
Ratio EC50 [17]: 2

SMILES: CC(C)C[C@H](NC(=O)[C@@H](NC(=O)CCCCCCCCCCCCCCC(=O)N[C@@H](CC(N)=O)C(=O)N[C@@H](Cc1ccccc1)C(=O)O)[C@@H](C)O)C(=O)NCCc1ccc(N)cc1
IC50 [18]: 650 nM

SMILES: Cc1c(O)cccc1C(=O)N[C@@H](CSc1ccccc1)[C@H](O)CN1C[C@H]2CCCC[C@H]2C[C@H]1C(=O)NC(C)(C)C
EC50 [15]: 250 nM

SMILES: CC(C)C[C@H](NC(=O)[C@@H](NC(=O)CCCCCCCCCCCCCCC(=O)N[C@@H](CC(N)=O)C(=O)N[C@@H](Cc1ccccc1)C(=O)O)[C@@H](C)O)C(=O)NCCc1ccccc1 (I: Asn-Phe-OH / II: Thr-Leu-NHPhenethyl; linker I:N-II:N via C16 diacid)
IC50 [18]: 5800 nM

SMILES: CCC(C)[C@H](NC(=O)[C@H](CCSC)NC(=O)CCCCCCCCCCCCCCC(=O)N[C@@H](CC(N)=O)C(=O)N[C@@H](Cc1ccccc1)C(=O)O)C(=O)N[C@@H](Cc1ccc(N)cc1)C(N)=O (stereo partly drawn) ({Phe-Asn-C16 diacid}-Met-[Ile(3ξ)]-[Phe(4-NH2)]-NH2)
Ki [1]: 85 nM

SMILES: Cn1c(=O)c2c(ncn2C)n(C)c1=O [CAFFEINE]
Papp at 0.5 h [20]: 100 ×10⁻⁶ cm/s

SMILES: Cc1cccc(C)c1OCC(=O)N[C@@H](Cc1ccccc1)[C@@H](O)C[C@H](Cc1ccccc1)NC(=O)[C@H](C(C)C)N1CCCNC1=O [LOPINAVIR]
EC50 [3]: 7 nM
EC50 [21]: 198 nM
EC50 [4]: > 160 nM
EC50 [8]: > 1000 nM
EC50 [9]: > 300 nM
EC50 [10]: > 1000 nM
EC50 [22]: 426 nM
EC50 [23]: 1600 nM
EC50 [24]: 511 nM
EC50 [25]: 1900 nM
EC50 [26]: 28 nM
EC50 [27]: 263 nM
EC50 [15]: > 436 nM
EC50 [16]: > 700 nM
EC50 [28]: 112 nM

The next lines start with results.

Ki [1]: 40 nM
SMILES: COC(=O)[C@@H](NC(=O)[C@H](CC(C)C)NC(=O)[C@@H](NC(=O)CCCOc1ccc2ccc(OCCCC(=O)N[C@H](CCCCNC(=O)OCc3ccccc3)C(=O)Nc3cccn(CC(N)=O)c3=O)cc2c1)C(C)C)C(C)C

Ki [1]: 19 nM
SMILES: O=C1C[C@@H](NC(=O)[C@H](OCc2cccc(Br)c2)[C@H](O)[C@@H](O)[C@@H](OCc2cccc(Br)c2)C(=O)N[C@H]2c3ccccc3C[C@H]2O)c2ccccc21

Ki [1]: 11 nM
SMILES: COc1cccc2c1C(=O)C[C@H]2NC(=O)[C@H](OCc1cccc(Br)c1)[C@H](O)[C@@H](O)[C@@H](OCc1cccc(Br)c1)C(=O)N[C@H]1c2ccccc2C[C@H]1O

Ki [1]: 1.39 nM
SMILES: COc1ccc(S(=O)(=O)N(CC(C)C)C[C@@H](O)[C@H](Cc2ccccc2)NC(=O)O[C@H]2CO[C@H]3C[C@@H]4OCC[C@@H]4[C@H]32)cc1

Ki [1]: 0.2 nM
SMILES: COc1ccc(S(=O)(=O)N(CC(C)C)C[C@@H](O)[C@@H]2Cc3ccc(cc3)OC/C=C/CCc3c(O)cccc3C(=O)N2)cc1
IC50 [19]: 210 nM

Source: ChEMBL document CHEMBL5252512, “Recent Progress in the Development of HIV-1 Protease Inhibitors for the Treatment of HIV/AIDS” (J Med Chem, 2016)
